Source: patent US10329324B2 (viDA Therapeutics Inc., priority 2013, dated 2019)

What follows are compounds tested against T1, human Granzyme B (hGzmB) (Homo sapiens, UniProt P10144) (assay: Human Granzyme B enzymatic inhibition assay (fluorogenic, kinetic)). Conditions: not given.
T1 construct: purchased Froelich Lab, Northshore University Health Systems Research Institute, Evanston, Ill., USA
T1 sequence (P10144 21-247): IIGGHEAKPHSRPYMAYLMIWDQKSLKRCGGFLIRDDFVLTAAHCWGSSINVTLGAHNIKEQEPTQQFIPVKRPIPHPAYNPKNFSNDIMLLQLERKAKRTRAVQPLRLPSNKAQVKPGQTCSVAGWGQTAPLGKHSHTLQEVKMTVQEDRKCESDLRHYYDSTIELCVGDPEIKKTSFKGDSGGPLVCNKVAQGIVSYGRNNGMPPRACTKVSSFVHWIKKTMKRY
Type: biochemical
Procedure: A specific 2× assay buffer was prepared for the enzyme to be tested (see Table 2 for final 1× assay buffer compositions). If the assay buffer included DTT, it was added immediately prior to running the assay. A 2× enzyme mix was prepared (see Table 3 for enzyme assay conditions) at 80 uL per well. Compounds were screened at one or two appropriate concentrations (to determine the percent inhibition at those concentrations) and/or a full dose response curve (typically 8 points, to identify the IC50) in duplicate, triplicate, or higher replicates as needed. An appropriate control was also assessed in full dose response, in duplicate for each assay/plate. Background control wells consisted of 1× assay buffer, DMSO (5% v/v) and substrate. Positive control wells consisted of enzyme, DMSO (5% v/v) and substrate. Test compounds and control compounds were diluted in DMSO to […] the final desired concentration. For example, a test compound may be tested in dose response, in serial, tripling dilution condition starting at 20 uM and ending at 9.1 nM (or any appropriate concentration range and dilution scheme). Control compounds were prepared similarly. Diluted compounds were prepared in a dilution plate and transferred to the reaction plate (96-well medium binding plate (Greiner Bio-One FLUOTRAC™)) to allow for the desired final concentrations when added to the enzyme with AB. After mixing, the reaction plate was placed on a shaker (at 300 RPM) for 5 min, followed by incubation (covered) on the bench, for 20 min. Plates were warmed to reaction temperature (see Table 3) for a total incubation time of 30 min. Plates so prepared were ready for addition of substrate and the subsequent reaction.
(§1) An appropriate substrate for each assay was prepared in advance at 2× the final desired concentration (see Table 2) in DMSO. The appropriate substrate mix was added to each appropriate well on the reaction plate, and the plate was read immediately in the TECAN plate reader (TECAN INFINITE® M1000 Pro), set to the correct wavelength as needed for each assay (see Table 3) using 25 cycles, kinetic interval of 1 min, number of reads per well of 20 with shaking set to 1 s, double orbital, 2 mm amplitude. For fluorescent assays the gain was set to optimal (50%).
An in vitro fluorogenic detection assay for assessing the IC50 and/or percent inhibition at a given concentration of inhibitors against human Granzyme B (hGzmB) enzyme was performed as described in Example D1. When appropriate, percent inhibition data was collected and fitted to generate IC50 data using GraphPad Prism 5 (GraphPad Software, La Jolla Calif. USA, www.graphpad.com) and its non-linear regression analysis tools or other equivalent tools. […]
as §1, with “5)” for “2)”, “assay buffer. 30 uL of the” for “DMSO. The”, “6)” for “3)”, “15” for “25”, “(100% with gain regulation) for all assays except human GzmB which was set to 85 (with the z set at 23000 um).” for “(50%).”
An in vitro fluorogenic detection assay for assessing the IC50 and/or percent inhibition at a given concentration of inhibitors against human Granzyme B (hGzmB) enzyme was performed as described in Example D5. When appropriate, percent inhibition data was collected and fitted to generate IC50 data using GraphPad Prism 5 (GraphPad Software, La Jolla Calif. USA, www.graphpad.com) and its non-linear regression analysis tools or other equivalent tools.
With `CC[C@H](C)[C@H](NC(=O)[C@@H](N)CC(=O)O)C(=O)NCC(=O)N1c2ccccc2C[C@H]1C(=O)NCc1nn[nH]n1` [Example A37, (3S)-3-Amino-3-{[(1S,2S)-2-Methyl-1-({2-Oxo-2-[(2S)-2-[(2H-1,2,3,4-Tetrazol-5-Ylmethyl)Carbamoyl]-2,3-Dihydro-1H-Indol-1-Yl]Ethyl}Carbamoyl)Butyl]Carbamoyl}Propanoic Acid] the IC50 was 100 to 1000 nM.
For `CC[C@H](C)[C@H](NC(=O)[C@H](N)CC(=O)O)C(=O)NCC(=O)N1c2ccccc2C[C@H]1C(=O)NCc1nn[nH]n1` [Example A38, (3R)-3-Amino-3-{[(1S,2S)-2-Methyl-1-({2-Oxo-2-[(2S)-2-[(2H-1,2,3,4-Tetrazol-5-Ylmethyl)Carbamoyl]-2,3-Dihydro-1H-Indol-1-Yl]Ethyl}Carbamoyl)Butyl]Carbamoyl}Propanoic Acid], the IC50 was 100 to 1000 nM.

Same assay, conditions: activity codes, Table 7; read-out: IC50 Activity Range
With `CC[C@H](C)[C@H](NC(=O)[C@H](C)CC(=O)OC)C(=O)NCC(=O)N1c2ccccc2C[C@H]1C(=O)NCc1nn[nH]n1` [Example A29, Methyl (3R)-3-Methyl-3-{[(1S,2S)-2-Methyl-1-({2-Oxo-2-[(2S)-2-[(2H-1,2,3,4-Tetrazol-5-Ylmethyl)Carbamoyl]-2,3-Dihydro-1H-Indol-1-Yl]Ethyl}Carbamoyl)Butyl]Carbamoyl}Propanoate] the IC50 was 100 to 1000 nM.
In the case of `CC[C@H](C)[C@H](NC(=O)C1=C(C(=O)O)CCCC1)C(=O)NCC(=O)N1c2ccccc2C[C@H]1C(=O)NCc1nn[nH]n1` [Example A31], the IC50 is reported as under 100 nM.
For `CC[C@H](C)[C@H](NC(=O)[C@@H](O)[C@H](O)C(=O)O)C(=O)NCC(=O)N1c2ccccc2C[C@H]1C(=O)NCc1nn[nH]n1` [Example A33, (2S,3S)-2,3-Dihydroxy-3-{[(1S,2S)-2-Methyl-1-({2-Oxo-2-[(2S)-2-[(2H-1,2,3,4-Tetrazol-5-Ylmethyl)Carbamoyl]-2,3-Dihydro-1H-Indol-1-Yl]Ethyl}Carbamoyl)Butyl]Carbamoyl}Propanoic Acid], the IC50 was under 100 nM.
Work on `CC[C@H](C)[C@H](NC(=O)Cc1cccc(CC(=O)O)c1)C(=O)NCC(=O)N1c2ccccc2C[C@H]1C(=O)NCc1nn[nH]n1` [Example A35, 2-[3-({[(1S,2S)-2-Methyl-1-({2-Oxo-2-[(2S)-2-[(2H-1,2,3,4-Tetrazol-5-Ylmethyl)Carbamoyl]-2,3-Dihydro-1H-Indol-1-Yl]Ethyl}Carbamoyl)Butyl]Carbamoyl}Methyl)Phenyl]Acetic Acid] yielded an IC50 of under 100 nM.
`CC[C@H](C)[C@H](NC(=O)/C=C/C(=O)O)C(=O)NCC(=O)N1c2ccccc2C[C@H]1C(=O)NCc1nn[nH]n1` [Example A36, (2E)-3-{[(1S,2S)-2-Methyl-1-({2-Oxo-2-[(2S)-2-[(2H-1,2,3,4-Tetrazol-5-Ylmethyl)Carbamoyl]-2,3-Dihydro-1H-Indol-1-Yl]Ethyl}Carbamoyl)Butyl]Carbamoyl}Prop-2-Enoic Acid] showed an IC50 of under 100 nM.
Compound `CC[C@H](C)[C@H](NC(=O)C[C@H](N)C(=O)O)C(=O)NCC(=O)N1c2ccccc2C[C@H]1C(=O)NCc1nn[nH]n1` [Example A39, (2S)-2-Amino-3-{[(1S,2S)-2-Methyl-1-({2-Oxo-2-[(2S)-2-[(2H-1,2,3,4-Tetrazol-5-Ylmethyl)Carbamoyl]-2,3-Dihydro-1H-Indol-1-Yl]Ethyl}Carbamoyl)Butyl]Carbamoyl}Propanoic Acid] has an IC50 of 100 to 1000 nM.
`CC[C@H](C)[C@H](NC(=O)C[C@@H](N)C(=O)O)C(=O)NCC(=O)N1c2ccccc2C[C@H]1C(=O)NCc1nn[nH]n1` [Example A40, (2R)-2-Amino-3-{[(1S,2S)-2-Methyl-1-({2-Oxo-2-[(2S)-2-[(2H-1,2,3,4-Tetrazol-5-Ylmethyl)Carbamoyl]-2,3-Dihydro-1H-Indol-1-Yl]Ethyl}Carbamoyl)Butyl]Carbamoyl}Propanoic Acid] was tested, and the IC50 was 100 to 1000 nM.
In the case of `CC[C@@H](C)[C@H](NC(=O)Cc1ccccc1)C(=O)NCC(=O)N1c2ccccc2C[C@H]1C(=O)NCc1nn[nH]n1` [Example A42, (2S)-1-{2-[(2S,3R)-3-Methyl-2-(2-Phenylacetamido)Pentanamido]Acetyl}-N-(2H-1,2,3,4-Tetrazol-5-Ylmethyl)-2,3-Dihydro-1H-Indole-2-Carboxamide], the IC50 is reported as 1000 to 10000 nM.
In the case of `CC[C@H](C)[C@H](NC(=O)CCC(=O)OCCOC(=O)C(C)(C)C)C(=O)NCC(=O)N1c2ccccc2C[C@H]1C(=O)NCc1nn[nH]n1` [Example A47, 2-[(2,2-Dimethylpropanoyl)Oxy]Ethyl 3-{[(1S,2S)-2-Methyl-1-({2-Oxo-2-[(2S)-2-[(2H-1,2,3,4-Tetrazol-5-Ylmethyl)Carbamoyl]-2,3-Dihydro-1H-Indol-1-Yl]Ethyl}Carbamoyl)Butyl]Carbamoyl}Propanoate], the IC50 is reported as 100 to 1000 nM.
`CC[C@H](C)[C@H](NC(=O)C1C[C@@H]1C(=O)O)C(=O)NCC(=O)N1c2ccccc2C[C@H]1C(=O)NCc1nn[nH]n1` (stereo partly drawn) [Example A48, (1S,2S)-2-{[(1S,2S)-2-Methy-1-({2-Oxo-2-[(2S)-2-[(2H-1,2,3,4-Tetrazol-5-Ylmethyl)Carbamoyl]-2,3-Dihydro-1H-Indol-1-Yl]Ethyl}Carbamoyl)Butyl]Carbamoyl}Cyclopropane-1-Carboxylic Acid] was tested, and the IC50 was 1000 to 10000 nM.
Work on `CC[C@H](C)[C@H](NC(=O)[C@H](C)c1ccccc1)C(=O)NCC(=O)N1c2ccccc2C[C@H]1C(=O)NCc1nn[nH]n1` [Example A49, (2S)-1-{2-[(2S,3S)-3-Methyl-2-[(2R)-2-Phenylpropanamido]Pentanamido]Acetyl}-N-(2H-1,2,3,4-Tetrazol-5-Ylmethyl)-2,3-Dihydro-1H-Indole-2-Carboxamide] yielded an IC50 of 100 to 1000 nM.
In the case of `CC[C@H](C)[C@H](NC(=O)[C@@H](C)c1ccccc1)C(=O)NCC(=O)N1c2ccccc2C[C@H]1C(=O)NCc1nn[nH]n1` [Example A50, (2S)-1-{2-[(2S,3S)-3-Methyl-2-[(2S)-2-Phenylpropanamido]Pentanamido]Acetyl}-N-(2H-1,2,3,4-Tetrazol-5-Ylmethyl)-2,3-Dihydro-1H-Indole-2-Carboxamide], the IC50 is reported as 100 to 1000 nM.
In the case of `CC[C@H](C)[C@H](NC(=O)CCC(C(=O)O)c1ccccc1)C(=O)NCC(=O)N1c2ccccc2C[C@H]1C(=O)NCc1nn[nH]n1` (stereo partly drawn) [Example A51, 4-{[(1S,2S)-2-Methyl-1-({2-Oxo-2-[(2S)-2-[(2H-1,2,3,4-Tetrazol-5-Ylmethyl)Carbamoyl]-2,3-Dihydro-1H-Indol-1-Yl]Ethyl}Carbamoyl)Butyl]Carbamoyl}-2-Phenylbutanoic Acid], the IC50 is reported as under 100 nM.
In the case of `CC[C@H](C)[C@H](NC(=O)Cc1ccccc1)C(=O)NCC(=O)N1c2ccccc2C[C@H]1C(=O)NC(C)c1nn[nH]n1` (stereo partly drawn) [Example B3], the IC50 is reported as 1000 to 10000 nM.
In the case of `CC[C@H](C)[C@H](NC(=O)Cc1ccccc1)C(=O)NCC(=O)N1c2cc(OC)ccc2CC1C(=O)NCc1c[nH]nn1` (stereo partly drawn) [Example B6, 6-Methoxy-1-{2-[(2S,3S)-3-Methyl-2-(2-Phenylacetamido)Pentanamido]Acetyl}-N-(1H-1,2,3-Triazol-5-Ylmethyl)-2,3-Dihydro-1H-Indole-2-Carboxamide], the IC50 is reported as 1000 to 10000 nM.
In the case of `C[C@@H](O)[C@H](NC(=O)Cc1ccccc1)C(=O)NCC(=O)N1c2ccccc2C[C@H]1C(=O)NCc1nn[nH]n1` [Example C2, (2S)-1-{2-[(2S,3R)-3-Hydroxy-2-(2-Phenylacetamido)Butanamido]Acetyl}-N-(2H-1,2,3,4-Tetrazol-5-Ylmethyl)-2,3-Dihydro-1H-Indole-2-Carboxamide], the IC50 is reported as over 10000 nM.
